The results in this text go back to article PMC6630837 (Pharmaceuticals, 2019).

Data set [1] can be described thus: LogD7.4 determination (octan-1-ol/phosphate buffer, LC-MS). The settings on record: octan-1-ol/phosphate buffer, pH 7.4, octan-1-ol/phosphate buffer pH 7.4, 25 °C; read-out: Log D7.4 (partition coefficient at pH 7.4). It is filed as physicochemical. The procedure: LogD7.4 determination. The in-silico prediction tool ALOGPS [4] was used to estimate the octanol-water partition coefficients (log P) of the compounds. […] For each category, two different ratios (volume of octan-1-ol to volume of buffer) were defined as experimental parameters (Table 2).
Equal amounts of phosphate buffer (0.1 M, pH 7.4) and octan-1-ol were mixed and shaken vigorously for 5 min to saturate the phases. The mixture was left until separation of the two phases, and the buffer was retrieved. Stock solutions of the test compounds were diluted with buffer to a concentration of 1 μM. For each compound, three determinations per octan-1-ol:buffer ratio were performed in different wells of a 96-well plate. The respective volumes of buffer-containing analyte (1 μM) were pipetted to the wells and covered by saturated octan-1-ol according to the chosen volume ratio. […] The aqueous phase was transferred to a 96-well plate for analysis by liquid chromatography-mass spectrometry (LCMS, see below).
Results are presented as the mean ± SD of three independent experiments.
LC-MS measurements. […] The system was controlled with the Agilent MassHunter Workstation Data Acquisition software (version B.01.04). The column used was an AtlantisR T3 C18 column (2.1 × 50 mm) with a 3 μm-particle size (Waters Corp., Milford, MA, USA). The mobile phase consisted of eluent A: 10 mM ammonium acetate, pH 5.0 in 95:5, H2O:MeCN; and eluent B: MeCN containing 0.1% formic acid. The flow rate was maintained at 0.6 mL/min. […] MS parameters such as fragmentor voltage, collision energy, and polarity were optimized individually for each drug, and the molecular ion was followed for each compound in the multiple reaction monitoring mode. The concentrations of the analytes were quantified by the Agilent Mass Hunter Quantitative Analysis software (version B.01.04).

For data set [2], the system named is SH-SY5Y human neuroblastoma cells. Description: Neuroprotection against H2O2-induced toxicity, MTT cell viability assay. It is filed as cell-based. The settings on record: 50 μM compound, 100 μM H2O2, 24 h, 37 °C. From the text:
Neuroprotective activity assays against H2O2-induced toxicity. On the basis of previously described protocols, the flavones and analogues herein synthesized were screened for their neuroprotective effects against H2O2-induced oxidative stress and neuronal damage in SH-SY5Y human neuroblastoma cells by means of a thiazolyl blue tetrazolium bromide (MTT) reduction-based cell viability assay.
(§1) Neuroprotective assays in human neuroblastoma (SH-SY5Y) cells. […] Differences were considered significant when P < 0.05.

Data set [3] has the same test system. As to the kind of experiment: Neuroprotection against Aβ1-42-induced toxicity, MTT cell viability assay. It is filed as cell-based. Conditions: 50 μM compound, 20 μM Aβ1-42, 24 h, 37 °C. The protocol: Neuroprotective activity assays against Aβ1-42-induced toxicity. From all compounds tested in the above presented assay, the pair 8 and 19 presented the strongest neuroprotective potential, with convincing proof on the importance of the aglycone for the desired neuroprotective effects against H2O2-induced cell injury. […] Here, the MTT assay was used once again to assess cell viability of SH-SY5Y cells treated with 20 μM of Aβ1-42, in the presence of 50 μM of each compound. Similar protocols have been used to screen candidates for AD therapy. Moreover, based on the existing evidence that in situ spontaneous fibrillization of Aβ1-42 in the incubation mixture is important in the triggering of neurotoxic effects, we added the Aβ1-42 peptide fragment dissolved in DMSO to the culture medium prior to incubation, together with each compound in study. […] Even though there is published evidence that undifferentiated SH-SY5Y cells are not as sensitive to Aβ1-42-induced neurite degeneration and apoptosis as differentiated ones, with 20 μM of Aβ1-42 we were able to observe a significant decrease in cellular MTT reduction capacity, corresponding to roughly half of the cell viability rates observed in the non-treated control.
as §1
On the technique in general: Tetrazolium dyes change colour on reduction, which living cells bring about.

For data set [4], the target named is acetylcholinesterase (AChE) (Electrophorus electricus, UniProt O42275). Description: Acetylcholinesterase inhibition, Ellman's colorimetric assay. The settings on record: 100 µM compound; read-out: AChE inhibitory efficacy (percentage of inhibition). It is filed as biochemical. The protocol:
For cholinesterase inhibition tests (acetylcholinesterase (AChE, electrophorus
was kept within 1.25% cuvette concentration.
AChE and at 18.2 µM concentration for BuChE. […]
(In general: In Ellman's method for cholinesterases, released thiocholine reacts with DTNB.)

In data set [5] the target is T1, butyrylcholinesterase (BuChE) (Equus caballus, UniProt P81908).
T1 construct: (BuChE, equine serum); from tissue; host or cells: equine serum
As to the kind of experiment: biochemical. The settings on record: 100 µM compound. The procedure: Experimental procedures for cholinesterase inhibition a s sa y s. For cholinesterase inhibition tests (acetylcholinesterase (AChE, electrophorus
el ec t r ic u s) a n d b ut yr ylcholinesterase (BuChE, equine serum), the Ellman’s cholorimetric assay1 was followed, with minor modifications. DMSO
was kept within 1.25% cuvette concentration. The chromogenic agent DTNB [5,5’-dithiobis(2-nitrobenzoic acid)] was fixed at 0.975 mM
con centration; 0. 1 M phosphate buffer (pH 8. 0) was employed, T = 25 °C, and the reaction was monitored for 125 s. […]
of inhibition, the substrate concentration (acetylthiocholine iodide for AChE; S- butyr ylthiocholine iodide for BuChE) was fixed at 29 µM for
AChE and at 18.2 µM concentration for BuChE.
Lineweaver-Burk plot (or double reciprocal plot, 1/V vs . 1/ [S ]) wa s u se d for estimating both, the mode of inhibition and the inhibition constants […]
Competitive inhibition (inhibitor only bonds the free enzyme):
KKiiii = [II ]KKMM iiaaaa
M i xe d inhibition (inhibitor binds both, the free and the complexed enzyme) :
Uncompetitive (the inhibitors only binds the complexed enzyme):
N on -competitive (inhibitor binds both the free enzyme and the complexed enzyme with equal affinity) :
Table S3. […]
of the synthesized flavone analogues at 100 µ M.
C omp ou n d N o. AChE B uChE

Data set [6] in a line: Cell viability (MTT) assay in HepG2 cells. It is filed as cell-based, human. The settings on record: human; HepG2 cells, 0.1 μM to 100 μM; read-out: IC50 (cytotoxicity). The protocol:
Cell viability assay in human epithelial colorectal adenocarcinoma (Caco-2) and human liver hepatocellular (HepG2) cells. Caco-2 and HepG2 Cells were cultured in DMEM-Dulbecco’s modified Eagle’s medium (Sigma-Aldrich) supplemented with 10% (v/v) inactivated fetal bovine serum (PAA Laboratories GmbH), 2 mM L-glutamine (Sigma-Aldrich), 100 U/mL penicillin and 100 μg/mL streptomycin (Sigma-Aldrich), in a humidified incubator at 37 °C with a 5% CO2 atmosphere. Cells (3 × 10^4 cells/well) were seeded into 96-well plates and incubated at 37 °C in 5% CO2 atmosphere. After 24 h, compounds were added at different concentrations (0.1–100 μM) and incubated in the same conditions. DMSO controls were performed to evaluate a possible solvent cytotoxicity, while pure DMSO was used as a cytotoxic drug. After the established incubation time with compounds, MTT (5 mg/mL) in PBS (Sigma-Aldrich) was added (10 μL) to each well. After 3 h incubation at 37 °C, in 5% CO2, the supernatant was removed. The formazan crystals were solubilized using ethanol/DMSO (1:1) (100 μL), and the absorbance values were determined at 570 nm on the microplate reader Victor3 from PerkinElmer Life Sciences.

“Also recorded” adds a separate entry of the source.

Chain of acetylcholinesterase (AChE) (O42275 24-633): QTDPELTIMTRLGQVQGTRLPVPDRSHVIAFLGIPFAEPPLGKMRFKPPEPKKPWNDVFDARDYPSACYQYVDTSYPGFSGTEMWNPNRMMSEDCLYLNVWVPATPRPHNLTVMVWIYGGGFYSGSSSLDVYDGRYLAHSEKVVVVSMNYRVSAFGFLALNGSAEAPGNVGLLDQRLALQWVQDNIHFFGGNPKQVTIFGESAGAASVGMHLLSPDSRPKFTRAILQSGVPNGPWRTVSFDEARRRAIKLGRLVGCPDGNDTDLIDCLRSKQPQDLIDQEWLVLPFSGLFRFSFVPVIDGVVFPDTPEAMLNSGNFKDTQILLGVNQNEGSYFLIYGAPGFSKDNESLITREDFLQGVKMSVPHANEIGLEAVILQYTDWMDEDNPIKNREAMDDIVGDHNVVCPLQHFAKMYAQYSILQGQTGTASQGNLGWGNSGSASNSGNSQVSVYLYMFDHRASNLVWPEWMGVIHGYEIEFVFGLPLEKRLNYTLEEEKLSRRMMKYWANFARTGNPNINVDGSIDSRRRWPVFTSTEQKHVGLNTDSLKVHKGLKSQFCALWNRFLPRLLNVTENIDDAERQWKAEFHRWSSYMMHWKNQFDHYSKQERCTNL
T1 sequence (P81908 whole entry): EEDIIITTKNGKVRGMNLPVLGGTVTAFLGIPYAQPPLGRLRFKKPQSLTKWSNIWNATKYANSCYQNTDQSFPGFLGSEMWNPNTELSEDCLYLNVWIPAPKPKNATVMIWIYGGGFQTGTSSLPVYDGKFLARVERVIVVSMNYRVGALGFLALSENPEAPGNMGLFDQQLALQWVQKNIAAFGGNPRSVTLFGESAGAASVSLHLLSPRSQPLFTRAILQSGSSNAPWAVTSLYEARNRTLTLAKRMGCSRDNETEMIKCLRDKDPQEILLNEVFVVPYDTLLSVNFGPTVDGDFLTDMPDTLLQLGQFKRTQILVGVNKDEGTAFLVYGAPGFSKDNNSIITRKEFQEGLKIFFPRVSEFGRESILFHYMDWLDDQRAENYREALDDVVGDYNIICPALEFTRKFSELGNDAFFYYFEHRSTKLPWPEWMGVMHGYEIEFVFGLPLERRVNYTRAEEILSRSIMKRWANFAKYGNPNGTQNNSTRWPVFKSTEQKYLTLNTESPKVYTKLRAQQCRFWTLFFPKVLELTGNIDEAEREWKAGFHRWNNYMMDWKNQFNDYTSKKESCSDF

For orientation: inhibition means the change of the read-out against control, counted positive when it falls. One may read the IC50 as the midpoint of a concentration-inhibition curve. On to `O=c1cc(-c2ccc(N3CCOCC3)cc2)oc2c([C@@H]3O[C@H](CO)[C@@H](O)[C@H](O)[C@H]3O)c(O)cc(O)c12` [Compound 19, 8-(β-D-Glucopyranosyl)-5,7-dihydroxy-4′-(morpholin-4-yl)flavone], for which, in data set [1], the logD is 1.8 ± 0.2. Moreover, the “Neuroprotective effect against H2O2-induced toxicity (MTT cell viability)” value in data set [2] is listed as “able to produce statistically significant differences when compared to H2O2 controls”; in data set [2] (listed as 37) it was “fully rescued”. For the same compound, the entries for the “Neuroprotective effect against Aβ1-42-induced toxicity (MTT cell viability)” value in data set [3] and in data set [3] (listed as 37) were “the result with the highest significance when compared to controls; also recorded: the result with the highest significance when compared to the controls” and “fully rescued”, respectively. In data set [4], the inhibition at 100 µM turned out to be 18%. For the same compound, the “BuChE inhibitory efficacy (percentage of inhibition)” value in data set [5] was “n.i ”. Also, the IC50 in data set [6] is no less than 100 µM.
